Patent US20150064754A1, “BIOPRODUCTION OF CHEMICALS” (OPX Biotechnologies, Inc., priority 2013, published 2015)

B1: rhtA: chemical exporter from E. coli characterized for homoserine transport; mutant version rhtA(P2S) overexpressed (protein)
chain: MSGSLRKMPVWLPIVILLVAMASIQGGASLAKSLFPLVGAPGVTALRLALGTLILIAFFKPWRLRFAKEQRLPLLFYGVSLGGMNYLFYLSIQTVPLGIAVALEFTGPLAVALFSSRRPVDFVWVVLAVLGLWFLLPLGQDVSHVDLTGCALALGAGACWAIYILSGQRAGAEHGPATVAIGSLIAALIFVPIGALQAGEALWHWSVIPLGLAVAILSTALPYSLEMIALTRLPTRTFGTLMSMEPALAAVSGMIFLGETLTPIQLLALGAIIAASMGSTLTVRKESKIKELDIN

Tests used:
E. coli strains = assay: Growth inhibition of E. coli strains grown in the presence of 3-HP; assay type: cell-based; settings: levels as low as
E. coli ACCase = E. coli ACCase (Escherichia coli, UniProt P0A9Q5+P0ABD5+P0ABD8+P24182); settings: FIG. 4; for decrease of the activity of the ACCase enzyme relative to control: salts of 3-HP levels near 0.66M; for decrease of the activity of the ACCase enzyme: salt levels near 0.44M
Method: Levels of greater than 0.66M (60 g/L) are expected to be present for commercially viable commercial production of 3-HP.
Each gene was amplified by PCRs with Pfu Ultra II HS using the manufacturer's instructions, and the PCR products were purified using the Zymo PCR Cleanup kit. Concentrations of products were measured using the Nanodrop spectophotometer. The Gibson Assembly kit (NEB) was used to construct plasmids expressing the ACCase subunit genes as directed by the manufacturer. The effect of NH4-3-HP and NH4Cl on H. elongata ACCase was tested and compared to the E. coli ACCase.

H. elongata ACCase = assay: Salt inhibition of ACCase enzyme activity (H. elongata ACCase); assay type: biochemical, Halomonas elongata; settings: FIG. 4
Method: Concentrations of products were measured using the Nanodrop spectophotometer.

3-HP production = assay: 1 L fermentation, 3HP titer with overexpression of rhtA exporter; assay type: cell-based, E. coli; settings: control plasmid without rhtA, FIG. 7
Method: A known chemical exporter from E. coli that has been previously characterized for homoserine transport, rhtA, was evaluated for increased production of 3-HP. A mutant version of the exporter, rhtA(P2S) (SEQ ID NO. 30 nucleic acid, SEQ ID NO. 31 protein) was synthesized behind the PtpiA promoter and inserted into the pTRC-PyibD-MCR plasmid behind a terminator using the Gibson Assembly kit (NEB) according to manufacturer's instructions. The effects of overexpression of rhtA were evaluated in 1 L fermentation compared to the control plasmid without rhtA. […] Construction of plasmids expressing another putative transporter, ydcO (SEQ ID NO. 32 nucleic acid, SEQ ID NO. 33 protein) is carried out in the same manner.

Chain of E. coli ACCase (P0A9Q5 whole entry): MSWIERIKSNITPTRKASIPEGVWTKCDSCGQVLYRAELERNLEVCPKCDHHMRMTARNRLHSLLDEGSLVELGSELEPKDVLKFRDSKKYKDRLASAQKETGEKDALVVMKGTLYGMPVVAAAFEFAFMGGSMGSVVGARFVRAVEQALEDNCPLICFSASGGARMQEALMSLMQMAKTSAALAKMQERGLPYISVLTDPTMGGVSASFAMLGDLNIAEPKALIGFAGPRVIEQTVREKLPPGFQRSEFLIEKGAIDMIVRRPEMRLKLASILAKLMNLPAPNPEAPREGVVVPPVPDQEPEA
Chain of E. coli ACCase (P0ABD5 whole entry): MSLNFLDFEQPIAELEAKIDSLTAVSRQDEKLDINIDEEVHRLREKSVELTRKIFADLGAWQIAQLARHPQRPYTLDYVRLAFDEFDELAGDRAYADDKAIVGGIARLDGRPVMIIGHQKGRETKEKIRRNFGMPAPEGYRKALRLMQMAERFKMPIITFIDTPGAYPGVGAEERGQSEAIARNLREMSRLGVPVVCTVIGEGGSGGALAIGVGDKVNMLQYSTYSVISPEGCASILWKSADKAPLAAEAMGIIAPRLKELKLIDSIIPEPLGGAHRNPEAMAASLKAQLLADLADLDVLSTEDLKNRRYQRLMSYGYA

Row | Molecule | decrease of the activity of the ACCase enzyme relative to control (E. coli ACCase) | effect of salt on H. elongata ACCase compared to the E. coli ACCase (H. elongata ACCase) | effect of salt on E. coli ACCase (E. coli ACCase) | decrease of the activity of the ACCase enzyme (E. coli ACCase) | other results
1 | O=C(O)CCO [3-HP, 3-hydroxypropionic acid] |  |  |  |  | 3-HP level at which growth inhibition is demonstrated (E. coli strains): 20 g/L
2 | O=C([O-])CCO.[Na+] [Na-3-HP] | approximately 80% |  |  |  | 
3 | Cl.N [NH4Cl] |  | less affected | significantly inhibited | approximately 80% | 
4 | N.O=C(O)CCO [NH4-3-HP] | approximately 80% | less affected | significantly inhibited |  | 
5 | [Cl-].[Na+] [NaCl] |  |  |  | approximately 80% | 
6 | B1 |  |  |  |  | 3HP titer compared to the control production strain (3-HP production): significant improvement
